Values after ≈ are worked out from the molar mass of the structure shown.
Experiments:
[1] = system: Pseudomonas aeruginosa cystic fibrosis isolate 3317; test: MIC vs cystic fibrosis isolate of P. aeruginosa 3317 (resistant to aztreonam); type: cell-based; settings: strain 3317, Aztr. R, LpxC inhibitors, MIC key class
In short: (§1)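 Broth microdilution per NCCLS in cation-adjusted Mueller-Hinton broth, inoculum 3×10^5–7×10^5 CFU/mL, 2-fold drug dilutions. Incubated 18-24 h at 35 °C in ambient air; MIC is the lowest concentration preventing visible growth.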

[2] = system: Pseudomonas aeruginosa cystic fibrosis isolate 3206; test: microbe, parasite or virus in culture; type: cell-based; settings: strain 3206, MDR, LpxC inhibitors, MIC key class, read-out: MIC
In short: (§2)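 Isolates were passaged twice overnight on 5% blood agar at 35° C., adjusted to 0.5 McFarland and inoculated at 3×10^5–7×10^5 CFU/mL into 2-fold drug dilutions in cation-adjusted Mueller-Hinton broth. Trays were incubated 18-24 hours at 35° C.; the MIC was read as the lowest concentration preventing visible growth.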

[3] = system: Pseudomonas aeruginosa cystic fibrosis isolate 1145; test: microbe, parasite or virus in culture; type: cell-based; settings: strain 1145, MDR, LpxC inhibitors, MIC key class, read-out: MIC
In short: as §2

[4] = system: Pseudomonas aeruginosa cystic fibrosis isolate 3198; test: MIC vs cystic fibrosis isolate of P. aeruginosa 3198 (sensitive to most antibacterials); type: cell-based; settings: strain 3198, Sensitive, LpxC inhibitors, MIC key class
In short: as §1

[5] = system: Pseudomonas aeruginosa cystic fibrosis isolate 3224; test: MIC vs cystic fibrosis isolate of P. aeruginosa 3224; type: cell-based; settings: strain 3224, Tobra R, LpxC inhibitors, MIC key class
In short: as §1

S. aureus 29213 = test: MIC broth microdilution, standard panel: S. aureus 29213; type: cell-based; settings: Staphylococcus aureus, standard panel of organisms
Experimental: (§3) Bacterial isolates were cultivated from −70° C. frozen stocks by two consecutive overnight passages at 35° C. in ambient air on 5% blood agar (Remel, Lenexa, Kans.). Clinical isolates tested were from a collection composed of isolates collected during clinical trials and recent clinical isolates obtained from various geographically diverse hospitals in the US. Quality control and primary panel strains were from the American Type Culture Collection (ATCC; Rockville, Md.), with the exception of P. aeruginosa PAO200, a strain with a deletion of the mexABoprM genes that was received from Dr. H. Schweizer. […] Strain Z61 (ATCC 35151) is also hypersusceptible to antibacterials. It is thought that the hypersusceptibility of this strain is the result of increased permeability of its outer membrane (Angus B L et al, Antimicrobial Agents and Chemotherapy 1982 21,299-309: Outer membrane permeability in Pseudomonas aeruginosa: Comparison of a wild-type with an antibacterial-supersusceptible mutant).
(§4) Minimum Inhibitory Concentrations (MICs) were determined by the broth microdilution method in accordance with the National Committee for Clinical Laboratory Standards (NCCLS) guidelines. In brief, organism suspensions were are adjusted to a 0.5 McFarland standard to yield a final inoculum between 3×10^5 and 7×10^5 colony-forming units (CFU)/mL. Drug dilutions and inocula were made in sterile, cation adjusted Mueller-Hinton Broth (Remel). An inoculum volume of 100 μl was added to wells containing 100 μl of broth with 2-fold serial dilutions of drug. All inoculated microdilution trays were incubated in ambient air at 35° C. for 18-24 hours. Following incubation, the lowest concentration of the drug that prevented visible growth was recorded as the MIC. Performance of the assay was monitored by the use of laboratory quality-control strains against tobramycin, that has a defined MIC spectrum, in accordance with NCCLS guidelines.

Klebsiella pneumoniae = test: MIC vs enteric organisms: Klebsiella pneumoniae; type: cell-based; settings: K. pneu., MIC key class
In short: as §1

[6] = system: Stenotrophomonas maltophilia; test: MIC vs non-fermenting organisms: Stenotrophomonas maltophilia; type: cell-based; settings: Stenotrophomonas maltophilia, S. malt.; MIC key class; read-out: MIC
In short: as §1

E. coli 25922 = test: MIC broth microdilution, standard panel: E. coli 25922; type: cell-based; settings: Escherichia coli, standard panel of organisms
Experimental: as §3, §4

[7] = system: Pseudomonas aeruginosa cystic fibrosis isolate 2196; test: MIC vs cystic fibrosis isolate of P. aeruginosa 2196 (resistant to ciprofloxacin); type: cell-based; settings: strain 2196, Cipro R, LpxC inhibitors, MIC key class
In short: as §1

Serratia marcescens = test: MIC vs enteric organisms: Serratia marcescens; type: cell-based; settings: S. marc., MIC key class
In short: as §1

P. aeruginosa LpxC = target: T1, P. aeruginosa LpxC (Pseudomonas aeruginosa, UniProt P47205); test: P. aeruginosa LpxC Inhibition Assay; type: biochemical; settings: 2 nM P. aeruginosa LpxC, 90 min, room temperature; read-out: IC50 (nM), Enzyme inhibitory activity
T1 sequence (P47205 1-303): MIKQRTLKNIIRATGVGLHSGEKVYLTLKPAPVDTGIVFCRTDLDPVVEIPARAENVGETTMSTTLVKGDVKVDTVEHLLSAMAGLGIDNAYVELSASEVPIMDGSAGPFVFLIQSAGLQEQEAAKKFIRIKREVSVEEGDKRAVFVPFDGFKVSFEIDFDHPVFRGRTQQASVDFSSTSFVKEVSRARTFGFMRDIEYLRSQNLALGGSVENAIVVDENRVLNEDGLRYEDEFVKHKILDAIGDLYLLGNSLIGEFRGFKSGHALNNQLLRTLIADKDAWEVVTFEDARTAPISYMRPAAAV
Experimental: The assay followed the general method of Hyland et al (Journal of Bacteriology 1997 179, 2029-2037: Cloning, expression and purification of UDP-3-O-acyl-GlcNAc deacetylase from Pseudomonas aeruginosa: a metalloamidase of the lipid A biosynthesis pathway) and the radiolabeling procedure is according to Kline et al. supra. Briefly, samples were incubated with 2 nM P. aeruginosa LpxC and 150 nM [3H-Ac]-UDP-3-OR-3-hydroxydecanoyl)-GlcNAc in a total volume of 50 uL for 90 min at room temperature. Reactions were carried out in 96-well polypropylene plates in 50 mM sodium phosphate buffer, pH 7.5, containing 1 mg/mL BSA. Reactions were stopped by the addition of 180 uL of a 3% suspension of activated charcoal powder in 100 mM sodium acetate, pH 7.5. Supernatants were clarified by centrifugation. A portion of the clarified supernatant, containing the enzymatically released [3H]-acetate, was transferred to opaque white 96-well plates containing scintillation fluid. The radioactivity was measured in a Perkin-Elmer/Wallac Trilux Microbeta counter.

Burkholderia cepacia = test: MIC vs non-fermenting organisms: Burkholderia cepacia; type: cell-based; settings: Burkholderia cepacia, B. cepacia; MIC key class; read-out: MIC
In short: as §1

[8] = system: non-CF clinical isolates of P. aeruginosa; test: MIC vs non-CF clinical isolates of P. aeruginosa; type: cell-based; settings: Pseudomonas aeruginosa, MIC key class
In short: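 Broth microdilution per NCCLS in cation-adjusted Mueller-Hinton broth, inoculum 3×10^5–7×10^5 CFU/mL, 2-fold drug dilutions, 18-24 h at 35 °C in ambient air. MIC is the lowest concentration preventing visible growth. Isolates passaged twice overnight on 5% blood agar beforehand.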

SMILES	MIC [1] [µg/mL]	MIC [2] [µg/mL]	MIC [3] [µg/mL]	MIC [4] [µg/mL]	MIC [5] [µg/mL]	MIC (S. aureus 29213) [µg/mL]	MIC (Klebsiella pneumoniae) [µg/mL]	MIC [6] [µg/mL]	MIC (E. coli 25922) [µg/mL]	MIC [7] [µg/mL]	MIC (Serratia marcescens) [µg/mL]	IC50 (P. aeruginosa LpxC) [nM]	MIC (Burkholderia cepacia) [µg/mL]	MIC ([8]; P. aer 12307) [µg/mL]	MIC ([8]; P. aer 27853) [µg/mL]	MIC ([8]; P. aer psa-6b) [µg/mL]	MIC ([8]; PAO1, P. aer. PAO1) [µg/mL]
NC[C@H](NC(=O)c1ccc(C#CC#Cc2ccccc2)cc1)C(=O)NO [Example 481, N-[(1S)-1-(aminomethyl)-2-(hydroxyamino)-2-oxoethyl]-4-(4-phenylbuta-1,3-diynyl)benzamide]	< 6.25	< 6.25	< 6.25	< 6.25	< 6.25	> 50	< 6.25	> 50	< 6.25	< 6.25	< 6.25	< 100	6.25 to 50 (≈ 18 to 144 µM)	< 6.25	< 6.25	< 6.25	< 6.25
C[C@@H](O)[C@H](NC(=O)c1ccc(-c2ccc(Br)cc2)cc1)C(=O)NO [Example 315, 4′-bromo-N-{(1S,2R)-2-hydroxy-1-[(hydroxyamino)carbonyl]propyl}-1,1′-biphenyl-4-carboxamide]	< 6.25	< 6.25	< 6.25	< 6.25	< 6.25	> 50	> 50	< 6.25	< 6.25	< 6.25	6.25 to 50 (≈ 15.9 to 127 µM)	< 100	< 6.25	< 6.25	< 6.25	< 6.25	< 6.25

From patent US7358359B2, “Antibacterial agents” (University of Washington, priority 2003, dated 2008)
